Source: patent US20190030126A1, “Inhibitors of the Interaction BCL-2 L10 / IP3 Receptors” (Universite Claude Bernard - Lyon 1, priority 2016, published 2019)

Legend:
MDA-MB-231 cancer cells = assay: MDA-MB-231 tumour growth in the mammary fat pad of SCID mice; format: in vivo; conditions: 10 mg/kg, peritumoral injection, once every three days, monotherapy, versus vehicle (PBS); P<0.01
Experimental: (A) MDA-MB-231 cells have been injected into the mammary fat pad of SCID mice. When the tumors reached a mean volume of about 90 mm^3, mice were treated with dTAT 1-23 C20A peptide at 10 mg/kg, peritumoral injection, once every three days, or vehicle alone (PBS) with the same injection periodicity.
SCID Mice have been used as tumor model for testing the effects of administration of the peptides according to the invention
MDA-MB-231 cancer cells have been injected into the mammary fat pad of SCID mice.

[1] = molecular target: T1, Nrh/IP3R1 complex (Flag-Nrh / HA-hBD IP3R1) (Homo sapiens, UniProt Q9HD36); assay: Co-immunoprecipitation of Flag-Nrh and HA-hBD IP3R1 in HeLa cells pre-incubated with dTAT peptides; format: cell-based; conditions: 10 μM peptide, pre-incubated 1 h at 37° C., no external agent
T1 construct: expressed in transfected cells; host or cells: HeLa
T1 sequence (Q9HD36 11-204): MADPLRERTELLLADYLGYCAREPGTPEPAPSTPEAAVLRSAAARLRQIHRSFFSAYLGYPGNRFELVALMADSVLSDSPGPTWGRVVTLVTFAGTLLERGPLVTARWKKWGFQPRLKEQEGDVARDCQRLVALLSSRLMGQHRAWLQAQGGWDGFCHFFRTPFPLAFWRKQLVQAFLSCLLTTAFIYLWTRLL
Experimental: (B) The interaction between Flag-Nrh and HA-hBD IP3R1 was assessed by co-immunoprecipitation in HeLa cells transfected with a plasmid coding for Flag-Nrh or HA-hBD IP3R1, pre-incubated with 10 μM control peptide (dTAT 1-23 C20A Y16F) or 10 μM peptide (dTAT 1-23 C20A). In this experiment, dTAT-Nrh 1-23 C20A but not dTAT 1-23 C20A Y16F disrupts the Nrh/IP3R1 complex.
The interaction between Flag-Nrh (Bcl-2 L10) and HA-hBD IP3R1 was assessed by co-immunoprecipitation in HeLa cells transfected with a plasmid coding for Flag-Nrh or HA-hBD IP3R1, pre-incubated for 1 h at 37° C. in Ca^2+-free Balanced Salt Solution (121 mM NaCl, 5.4 mM KCl, 0.8 mM MgCl2, 6 mM NaHCO3, 5.5 mM D-glucose, 25 mM HEPES, pH 7.3) with vehicle (peptide solvant [H2O-TFA 0.1%]), and: • 10 μM of control peptide (dTAT 1-23 Y16F C20A) or • 10 μM of wild-type peptide (dTAT 1-23 C20A).
Cells were washed twice and incubated for another 1 h at 37° C. before harvest.

Sequence: CKRKKRRQRRRGGSGGADPLRERTELLLADYLGYAARE [dTAT 1-23 C20A]
- effect on tumoral growth (tumor volume) (MDA-MB-231 cancer cells): significant effect
- disruption of the Nrh/IP3R1 complex (co-immunoprecipitation) [1]: disrupt the Nrh/IP3R1 complex
